In US10441616B2, “Pharmaceutical composition for treating or preventing sensorineural hearing loss, containing cysteinyl leukotriene receptor antagonist and ginkgo leaf extract” (AJOU UNIVERSITY INDUSTRY-ACADEMIC COOPERATION FOUNDATION, priority 2014, dated 2019):

Assays:
Type in all cases: in vivo, mouse
hair cells = test: Surface preparation / Texas-Red phalloidin staining of hair cells of the Corti's organ after noise exposure; details: 1 week after noise exposure, 32 kHz site; montelukast post-treatment group compared with noise exposure group
Experimental: The cut cochlea was perfused with 4% PFA in 0.1 M PB and maintained overnight at 4° C. The cochlea was washed with PBS three times for 10 minutes and then decalcified with a 5% EDTA solution for 3 days. After decalcification, an otic capsule was removed and a lateral wall, a Reissner's membrane, and a tectorial membrane were removed under an optical microscope. The Corti's organ (OC) was dyed with Texas Red VR-X phalloidin (T7471; 200 U/mL methanol diluted 1:100 in PBS; Invitrogen, Eugene, Oreg.) for 1 hour. Thereafter, the entire samples were rinsed with PBS and cut and placed on a glass slide by performing a surface treatment method (microdissected into individual turns) and using a mounting solution containing 4′6-diamidino-2-phenilindol (H-1200; 1.5 μg/ml; DAPI; Vector Laboratories). The slide was incubated for at least 15 minutes. The hair cells of the OC were observed by a confocal microscope (LSM510, Carl Zeiss, Jena, Germany).

stereocilia of OHC = test: Scanning electron microscopy (SEM) of cochlear hair cells after noise exposure; details: basal turn areas corresponding to 32 kHz, montelukast post-treatment compared with only-noise exposed group
Text: The SEM was used for evaluating the form of the hair cells of the cochlea. The mouse was euthanized after intraperitoneal injection of urethane, and temporal bones were dissected at both sides from the skull in order to obtain the cochlea to be carefully cut. The fenestra rotunda of the obtained cochlea was perforated by using a sharp needle. An outer lymph space was perfused with 2% glutaraldehyde in PBS by positioning a Pasteur pipette having a modified butterfly catheter for the fenestra rotunda. Each sample was left in a glutaraldehyde solution overnight. The samples were perfused with 1% osmium tetroxide and positioned at a tissue rotator for 15 minutes. The samples were rinsed with PBS three times. Under an optical microscope, the bone part of the cochlea was carefully removed and a lateral wall was cut and removed to expose the Corti's organ. The tissue was continuously dehydrated with 50, 70, 90, 95, and 100% acetones. Each specimen was treated with hexamethyldisilazane (HMDS) and dried in air, and positioned in a stove for coating of platinum. The tissue was photographed by JSM-6380 (Jeol, Tokyo, Japan). The damage to the hair cells was analyzed in basal turn areas corresponding to 32 kHz.

CysLT1 receptor gene = test: PCR of Cysltr1 gene expression in the cochlea after noise exposure; details: 3 day after noise exposure, montelukast post-treatment vs noise exposure group
Experimental: At 1 day, 3 day, and 7 day, the animal was euthanized with urethane intraperitoneal injection (1 g/kg) and the bilateral temporal bone was immediately removed. Two isolated cochleae were dissolved in a TRIzol solution, the lipid was removed by adding chloroform, and then RNA gene was extracted with isopropanol alcohol. The extracted RNA gene was quantified, mixed with two types of forward and reverse primers and polymerase, and amplified at an average of 35 cycles for each primer through a PCR machine, and then changes in expression level for each gene were compared and analyzed by measuring the fluorescent degree.

[1] = test system: matrix metalloproteinase-3 (Mmp3); test: Gene and protein expression of Mmp3 in inner ear tissue after noise exposure (FIG. 10)

CysLT1 receptor gene (Cysltr1) expression (CysLT1 receptor gene): significantly decreased | Mmp3 gene expression level ([1]; montelukast post-treatment after noise exposure (FIG. 10A)): reduction | Mmp3 protein expression level ([1]; western blot, montelukast post-treatment after noise exposure (FIG. 10B)): reduction
Structure (SMILES): CC(C)(O)c1ccccc1CCC(SCC1(CC(=O)[O-])CC1)c1cccc(/C=C/c2ccc3ccc(Cl)cc3n2)c1.[Na+] (centres unmarked) [montelukast]
hair cell marker (phalloidin) (hair cells): significantly increased | damage to the stereocilia of OHC (stereocilia of OHC): significantly reduced
